Laboratory results reported in patent publication US9745324B2, “Iminothiadiazepane dioxide compounds as BACE inhibitors, compositions, and their use” (Merck Sharp & Dohme Corp., priority 2013, dated 2017).
pKi: −log10 of the molar value.

Assays:
[1] = target: soluble human BACE1 catalytic domain (Homo sapiens (Human), UniProt P56817); test: BACE1 HTRF FRET Assay; type: biochemical; conditions: Ki calculated from IC50 using the Cheng-Prusoff equation; QSY7-APPswe-Eu substrate, pH 5.0
Source text: Reagents: Na^+-Acetate pH 5.0; 1% Brij-35; Glycerol; Dimethyl Sulfoxide (DMSO); Recombinant human soluble BACE1 catalytic domain (>95% pure); APP Swedish mutant peptide substrate (QSY7-APP^swe-Eu): QSY7-[…]-Europium-amide (SEQ ID 1).
A homogeneous time-resolved FRET assay can be used to determine IC50 values for inhibitors of the soluble human BACE1 catalytic domain. This assay monitors the increase of 620 nm fluorescence that resulted from BACE1 cleavage of an APPswedish APP^swe mutant peptide FRET substrate (QSY7-[…]-Europium-amide (SEQ ID 1)). This substrate contains an N-terminal QSY7 moiety that serves as a quencher of the C-terminal Europium fluorophore (620 nm Em). […] Inhibition of BACE1 cleavage of the QSY7-APP^swe-Eu substrate by inhibitors is manifested as a suppression of 620 nm fluorescence.
Varying concentrations of inhibitors at 3× the final desired concentration in a volume of 10 ul are preincubated with purified human BACE1 catalytic domain (3 nM in 10 μl) for 30 minutes at 30° C. in reaction buffer containing 20 mM Na-Acetate pH 5.0, 10% glycerol, 0.1% Brij-35 and 7.5% DSMO. Reactions are initiated by addition of 10 μl of 600 nM QSY7-APP^swe-Eu substrate (200 nM final) to give a final reaction volume of 30 μl in a 384 well Nunc HTRF plate. The reactions are incubated at 30° C. for 1.5 hours. The 620 nm fluorescence is then read on a Rubystar HTRF plate reader (BMG Labtechnologies) using a 50 millisecond delay followed by a 400 millisecond acquisition time window. Inhibitor IC50 values are derived from non-linear regression analysis of concentration response curves.

[2] = target: purified human autoBACE-2 (Homo sapiens, UniProt Q9Y5Z0); test: BACE-2 Assay (BACE-HTRF assay); type: biochemical; conditions: Ki calculated from IC50 using the Cheng-Prusoff equation; QSY7-EISEVNLDAEFC-Eu-amide substrate, pH 5.0; read-out: BACE2 Ki
Sequence of purified human autoBACE-2 (Q9Y5Z0 63-518 limits assumed): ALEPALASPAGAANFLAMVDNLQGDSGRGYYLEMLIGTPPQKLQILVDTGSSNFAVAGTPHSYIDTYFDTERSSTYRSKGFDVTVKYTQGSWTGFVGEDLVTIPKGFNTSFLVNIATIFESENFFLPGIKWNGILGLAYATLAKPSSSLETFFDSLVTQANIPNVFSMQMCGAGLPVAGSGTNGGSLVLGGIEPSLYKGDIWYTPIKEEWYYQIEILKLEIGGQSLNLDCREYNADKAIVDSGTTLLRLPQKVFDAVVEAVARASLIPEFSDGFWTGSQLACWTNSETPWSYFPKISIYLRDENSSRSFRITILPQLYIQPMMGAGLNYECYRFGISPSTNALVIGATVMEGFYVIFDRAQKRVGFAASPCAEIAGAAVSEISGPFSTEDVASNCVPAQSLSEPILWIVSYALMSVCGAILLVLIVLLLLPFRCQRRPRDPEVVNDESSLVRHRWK
Description: DMSO is present at 5% final concentration in the assay. Following laser excitation of sample wells at 320 nm, the fluorescence signal at 620 nm is collected for 400 ms following a 50 μs delay on a RUBYstar HTRF plate reader (BMG Labtechnologies). Raw RFU data is normalized to maximum (1.0 nM BACE/DMSO) and minimum (no enzyme/DMSO) RFU values. […] The Ki values are calculated from the IC50 using the Cheng-Prusoff equation.

Sequence of soluble human BACE1 catalytic domain (P56817 75-416): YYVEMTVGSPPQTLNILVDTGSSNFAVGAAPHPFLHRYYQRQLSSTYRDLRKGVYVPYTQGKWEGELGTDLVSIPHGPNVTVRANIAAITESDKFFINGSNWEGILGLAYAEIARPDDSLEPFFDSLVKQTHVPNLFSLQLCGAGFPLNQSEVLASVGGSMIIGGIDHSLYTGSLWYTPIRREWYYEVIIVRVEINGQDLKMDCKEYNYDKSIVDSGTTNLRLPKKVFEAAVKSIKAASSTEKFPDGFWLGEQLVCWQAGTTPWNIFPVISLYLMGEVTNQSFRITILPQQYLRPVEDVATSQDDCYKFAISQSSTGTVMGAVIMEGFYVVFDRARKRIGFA

pKi [1]	pKi [2]	Compound
7.43	6.99	COc1cnc(C(=O)Nc2ccc(F)c([C@]3(C)CN(C)S(=O)(=O)C(C)(C)C(=N)N3)c2)cn1 [Example 1, N-{4-fluoro-3-[(4R)-6-imino-2,4,7,7-tetramethyl-1,1-dioxido-1,2,5-thiadiazepan-4-yl]phenyl}-5-methoxypyrazine-2-carboxamide]
7.34	8.22	CN1C[C@@](C)(c2cc(NC(=O)c3ccn(C(F)F)n3)ccc2F)NC(=N)C(C)(C)S1(=O)=O [Example 2, 1-(difluoromethyl)-N-{4-fluoro-3-[(4R)-6-imino-2,4,7,7-tetramethyl-1,1-dioxido-1,2,5-thiadiazepan-4-yl]phenyl}-1H-pyrazole-3-carboxamide]
7.27	7.89	CN1C[C@@](C)(c2cc(NC(=O)c3ccc(F)cn3)ccc2F)NC(=N)C(C)(C)S1(=O)=O [Example 3, 5-fluoro-N-{4-fluoro-3-[(4R)-6-imino-2,4,7,7-tetramethyl-1,1-dioxido-1,2,5-thiadiazepan-4-yl]phenyl}pyridine-2-carboxamide]
7.49	6.84	CN1C[C@@](C)(c2cc(NC(=O)c3ccc(OC(F)F)cn3)ccc2F)NC(=N)C(C)(C)S1(=O)=O [Example 4, 5-(difluoromethoxy)-N-{4-fluoro-3-[(4R)-6-imino-2,4,7,7-tetramethyl-1,1-dioxido-1,2,5-thiadiazepan-4-yl]phenyl}pyridine-2-carboxamide]
7.23	6.94	CN1C[C@@](C)(c2cc(NC(=O)c3ccc(C(F)(F)F)cn3)ccc2F)NC(=N)C(C)(C)S1(=O)=O [Example 5, N-{4-fluoro-3-[(4R)-6-imino-2,4,7,7-tetramethyl-1,1-dioxido-1,2,5--thiadiazepan-4-yl]phenyl}-5-(trifluoromethyl)pyridine-2-carboxamide]
7.48	7.36	COc1ccc(C(=O)Nc2ccc(F)c([C@]3(C)CN(C)S(=O)(=O)C(C)(C)C(=N)N3)c2)nc1 [Example 6, N-{4-fluoro-3-[(4R)-6-imino-2,4,7,7-tetramethyl-1,1-dioxido-1,2,5-thiadiazepan-4-yl]phenyl}-5-methoxypyridine-2-carboxamide]
	8.10	CN1C[C@@](C)(c2cc(NC(=O)c3ccc(Cl)cn3)ccc2F)NC(=N)C(C)(C)S1(=O)=O [Example 7, 5-chloro-N-{4-fluoro-3-[(4R)-6-imino-2,4,7,7-tetramethyl-1,1-dioxido-1,2,5-thiadiazepan-4-yl]phenyl}pyridine-2-carboxamide]
7.66	7.49	CN1C[C@@](C)(c2cc(NC(=O)c3ccc(C#N)cn3)ccc2F)NC(=N)C(C)(C)S1(=O)=O [Example 8, 5-cyano-N-{4-fluoro-3-[(4R)-6-imino-2,4,7,7-tetramethyl-1,1-dioxido-1,2,5-thiadiazepan-4-yl]phenyl}pyridine-2-carboxamide]
7.17	7.49	COc1cnc(C(=O)Nc2ccc(F)c([C@]3(C)CN(C)S(=O)(=O)C(C)(C)C(=N)N3)c2)c(C)c1 [Example 9, N-{4-fluoro-3-[(4R)-6-imino-2,4,7,7-tetramethyl-1,1-dioxido-1,2,5-thiadiazepan-4-yl]phenyl}-5-methoxy-3-methylpyridine-2-carboxamide]
7.21	7.23	COc1cnc(C(=O)Nc2ccc(F)c([C@]3(C)CN(C)S(=O)(=O)C(C)(C)C(=N)N3)c2)c(C)n1 [Example 10, N-{4-fluoro-3-[(4R)-6-imino-2,4,7,7-tetramethyl-1,1-dioxido-1,2,5-thiadiazepan-4-yl]phenyl}-5-methoxy-3-methylpyrazine-2-carboxamide]
7.62	7.55	Cc1cc(C#N)cnc1C(=O)Nc1ccc(F)c([C@]2(C)CN(C)S(=O)(=O)C(C)(C)C(=N)N2)c1 [Example 11, 5-cyano-N-{4-fluoro-3-[(4R)-6-imino-2,4,7,7-tetramethyl-1,1-dioxido-1,2,5-thiadiazepan-4-yl]phenyl}-3-methylpyridine-2-carboxamide]
